Source: patent US6060487A, “Indanol compounds” (Adir et Compagnie, priority 1997, dated 2000)

Experiments:
human 5-HT1A receptor = target: T1, human 5-HT1A receptor (Homo sapiens, UniProt P08908); test: Affinity for human h5-HT1A receptors, competition with [^3 H]-8-OH-DPAT; format: binding
T1 construct: expressed in transfected cells; host or cells: CHO cells (membranes)
T1 sequence (P08908 1-422): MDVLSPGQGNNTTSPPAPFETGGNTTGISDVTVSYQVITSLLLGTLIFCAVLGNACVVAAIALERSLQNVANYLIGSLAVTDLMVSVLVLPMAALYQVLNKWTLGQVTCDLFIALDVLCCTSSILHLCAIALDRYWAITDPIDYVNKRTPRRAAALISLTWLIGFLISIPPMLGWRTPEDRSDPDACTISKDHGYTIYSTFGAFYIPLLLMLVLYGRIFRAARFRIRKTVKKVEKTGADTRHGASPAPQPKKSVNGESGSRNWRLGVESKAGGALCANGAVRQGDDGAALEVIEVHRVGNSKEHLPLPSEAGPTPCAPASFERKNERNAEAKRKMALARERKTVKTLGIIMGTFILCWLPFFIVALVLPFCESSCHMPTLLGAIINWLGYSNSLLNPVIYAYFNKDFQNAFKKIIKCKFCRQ
Experimental: The radioactivity retained on the filters is determined by liquid scintillation counting.

[1] = target: T2, post-synaptic 5-HT1A receptors (Rattus norvegicus, UniProt P19327); test: Body temperature test in rats; format: in vivo
T2 construct: Body Temperature Test in Rats (post-synaptic 5-HT1A receptors); from tissue; host or cells: living rat (whole animal)
T2 sequence (P19327 1-422): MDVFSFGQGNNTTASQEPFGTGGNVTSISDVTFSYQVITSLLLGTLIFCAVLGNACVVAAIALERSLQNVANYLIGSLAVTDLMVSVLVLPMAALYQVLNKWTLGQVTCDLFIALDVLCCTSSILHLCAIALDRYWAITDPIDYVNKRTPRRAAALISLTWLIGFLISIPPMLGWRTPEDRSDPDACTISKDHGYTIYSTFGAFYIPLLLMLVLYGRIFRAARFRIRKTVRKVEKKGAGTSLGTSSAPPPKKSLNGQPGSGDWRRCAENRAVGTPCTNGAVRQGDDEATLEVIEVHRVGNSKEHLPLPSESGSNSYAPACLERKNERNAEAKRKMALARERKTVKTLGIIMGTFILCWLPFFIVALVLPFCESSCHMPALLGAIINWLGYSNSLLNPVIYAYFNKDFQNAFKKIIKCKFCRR
Excerpt: 2. Body Temperature Test in Rats (post-synaptic 5-HT1A receptors)
That effect is reversed by 5-HT1A antagonists,as has been shown by M. J. Millan (J. Pharmacol. Exp. Ther., 1993, 264, 1346-1376). According to the protocol described by that author, compounds of the invention which when administered on their own bring about a decrease in body temperature will be identified as post-synaptic 5-HT1A serotoninergic agonists. On the other hand, compounds of the invention that reverse the hypothermia induced by the prototypical 5-HT1A agonist 8-OH-DPAT will be identified as post-synaptic 5-HT1A antagonists.

[2] = target: T3, pre-synaptic 5-HT1A receptors (Rattus norvegicus, UniProt P19327); test: In vivo recording of unitary extracellular electrical activity in the dorsal nucleus of the raphe in rats
T3 construct: in the Dorsal Nucleus of the Raphe in Rats (pre-synaptic 5-HT1A receptors); from tissue; host or cells: living anaesthetised rat, serotoninergic neurons of the dorsal nucleus of the raphe
T3 sequence (P19327 1-422): T2 sequence (P19327 1-422)
Experimental: 1. "In Vivo" Recording of Unitary Extracellular Electrical Activity in the Dorsal Nucleus of the Raphe in Rats (pre-synaptic 5-HT1A receptors)
The administration of a 5-HT1A serotoninergic agonist decreases the discharge frequency of neurons in a dose-dependant manner. That effect is reversed by the selective 5-HT1A antagonist, WAY 100,635.
The rats are anaesthetised with chloral hydrate (400 mg/kg, i.p.) and placed in a stereotaxis apparatus (Unimecanique, France) after catheterisation of the femoral vein. The level of anaesthesia is maintained by i.p. administration of chloral hydrate every hour; the rectal temperature is maintained at 37±1° C. by means of a thermostatically controlled heated cover. A tungsten microelectrode (10 M.OMEGA., 1 μM) is inserted using an electronic microinsertion device (Unimecanique, France) into the dorsal nucleus of the raphe (AP: -7.8/bregma; L: 0.0; H: 5.0-6.5/dura; Paxinos and Watson Atlas, 1986). The potentials of the serotoninergic cells are characterised by their morphology (positive/negative biphase potentials, of a duration of less than 2.5 msec) and their slow and regular discharge rhythm of from 0.5 to 2.5 Hz. A single cell per animal is recorded.
After a period of ≥5 min (basal activity) and a first injection of carrier (distilled water to which a few drops of dilute lactic acid have been added, pH adjusted to 5 with 1N NaOH), the compound of the invention is administered intravenously in cumulatively increasing doses at intervals of 5 minutes.
Acquisition of the data is effected by the software Spike2 (Cambridge Electronic Design, England). The discharge frequency is measured over one minute at the maximum variation between each injection and is expressed as a percentage variation in relation to the basal activity (average of the 5 minutes preceding the first treatment) defined as 100%. The ID50 is calculated using a simple linear regression method with repeated measurements.

[3] = Ultrasonic vocalisation test in rats; format: in vivo, Male Wistar rats; conditions: for duration of the ultrasonic vocalisations: mean ± s.e.m.
Excerpt: 3. Ultrasonic Vocalisation Test in Rats
When a rat is placed in an environment previously associated with an unpleasant experience (electric shocks to the paws), its anxiety is shown by the emission of inaudible cries (or ultrasonic vocalisations).
Standard cages (Coulbourn Instruments), placed in sound-absorbing ventilated boxes, are fitted with a floor composed of electrifiable metal bars (shock generator and scrambler Med Associates Inc) and with a microphone located in the centre of the ceiling. The ultrasonic noises are converted into an audible range (bat-detector Buitenbedrijf). The signals modified in that manner are filtered and then processed (RTS software, Engineering Design). The spectrograms obtained are recorded on DAT tapes.
Male Wistar rats weighing 180-200 g on their arrival are placed in cages of four with free access to water and food from five days before the start of the study until the end of the study. The procedure employed is divided into three successive stages separated by 24 hours, called training, selection and test. During the training period, the animals are placed individually into cages where they receive six electric shocks (0.8 mA, 8 s) distributed randomly over a period of seven minutes. Selection comprises placing each animal in a cage for two minutes where it receives a single shock and putting it back in the cage thirty minutes later to record the ultrasonic vocalisations for a period of ten minutes; those animals in which the duration of the vocalisations is less than 90 seconds are excluded from the remainder of the experiment. The test phase proceeds in a similar manner to the selection stage, except that the compounds or the carrier are administered at the end of the two-minute period.

α1 receptors = test: Affinity for α1 receptors of rats, competition with [^3 H]-prazosin; format: binding; conditions: frontal cortex of rat, 25° C.
Experimental: The radioactivity retained on the filters is determined by liquid scintillation counting. The binding isotherms are analysed by non-linear regression using `PRISM` software (GraphPad Software Inc., S. Diego, USA) to determine IC50 values.

[4] = target: T2, post-synaptic 5-HT1A receptors; conditions: M. J. Millan, 1993; cited from earlier work

SMILES	Ki (human 5-HT1A receptor) [µM]	character at post-synaptic 5-HT1A receptors ([1]; post-synaptic, s.c.)	ED50 ([1]; sc, read-out: ID50 (reversal of the effects of 8-OH-DPAT, hypothermia)) [mg/kg]	discharge frequency, percentage in relation to the basal activity (100%) ([2]; 0.25 μg/kg i.v., n = 3, mean ± standard error of the mean) [%]	discharge frequency, percentage in relation to the basal activity (100%) ([2]; 0.5 μg/kg i.v., n = 3, mean ± standard error of the mean) [%]	discharge frequency, percentage in relation to the basal activity (100%) ([2]; 1 μg/kg i.v., n = 3, mean ± standard error of the mean) [%]	ED50 ([2]; intravenous, rat dorsal raphe, read-out: ID50 (decrease of discharge frequency)) [mg/kg]	character at pre-synaptic 5-HT1A receptors ([2]; pre-synaptic, rat, i.v.)	discharge frequency, percentage in relation to the basal activity (100%), after WAY 100,635 ([2]; reversal by WAY 100,635 31 μg/kg after cumulative Example 6 doses, n = 3, mean ± standard error of the mean) [%]	duration of the ultrasonic vocalisations ([3]; 0.04 mg/kg s.c., n = 6) [s]	duration of the ultrasonic vocalisations ([3]; 0.16 mg/kg s.c., n = 3, ** p < 0.01 vs carrier (Dunnett test)) [s]	duration of the ultrasonic vocalisations ([3]; 2.5 mg/kg s.c., n = 5, ** p < 0.01 vs carrier (Dunnett test)) [s]	effect on duration of the vocalisations (anxiolytic activity) ([3]; 0.16 and 2.5 mg/kg s.c.)	Ki (α1 receptors) [µM]	effect on body temperature [4]
O[C@@H]1c2ccccc2C[C@H]1N1CCN(c2cccc3c2OCCO3)CC1 (relative stereo) [Example 6, Trans-2-[4-(2,3-dihydro[1,4]benzodioxin-5-yl)piperazin-1-yl]indan-1-ol]	0.00173	behaves like a post-synaptic 5-HT1A serotoninergic antagonist	1.3	73.84	52.23	36.16	0.00059	behaves like a 5-HT1A serotoninergic agonist at the pre-synaptic level	140.48	170 ± 62	28 ± 14	8 ± 8	brings about a reduction in the duration of the vocalisations, indicating its anxiolytic activity	0.932	–
CCCN(CCC)C1CCc2cccc(O)c2C1 (stereo not drawn) [Example 8-OH-DPAT]	–	–	–	–	–	–	–	–	–	–	–	–	–	–	brings about a decrease in body temperature in a dose-dependent manner
